Test system: mD4-VV surrogate virus
Test: microbe, parasite or virus in culture
Type: cell-based, mD4/vaccinia hybrid virus
Details: for EC50: Hybrid virus, BSC-1, read-out: mD4 EC50

Compound | EC50 | % @ 25 uM (mD4)
CCC(C(=O)Nc1sc(C(N)=O)c(C)c1C(=O)OC)c1ccccc1OC (stereo not shown) [Compound 95, Methyl 2-(2-(2-methoxyphenyl)butanamido)-5-carbamoyl-4-methylthiophene-3-carboxylate] | 21.2 µM | –
CCC(C(=O)Nc1sc(C(N)=O)c(C)c1C(=O)OC)c1cccc(OC)c1 (stereo not shown) [Compound 96, Methyl 2-(2-(3-methoxyphenyl)butanamido)-5-carbamoyl-4-methylthiophene-3-carboxylate] | – | 56% @ 25 uM
CCC(C(=O)Nc1sc(C(N)=O)c(C)c1C(=O)OC)c1ccc(OC)cc1 (stereo not shown) [Compound 97, Methyl 2-(2-(4-methoxyphenyl)butanamido)-5-carbamoyl-4-methylthiophene-3-carboxylate] | – | 37% @ 25 uM
CCC(C(=O)Nc1sc(C(N)=O)c(C)c1C(=O)OC)c1cccc(F)c1 (stereo not shown) [Compound 98, Methyl 2-(2-(3-fluorophenyl)butanamido)-5-carbamoyl-4-methylthiophene-3-carboxylate] | 18 µM | –
CCOC(=O)c1nnsc1NC(=O)C(CC)c1ccccc1 (stereo not shown) [Compound 106, 5-(2-Phenyl-butyrylamino)-[1,2,3]thiadiazole-4-carboxylic acid ethyl ester] | – | 40% @ 25 uM
CCC(C(=O)Nc1sccc1C(=O)OC)c1ccccc1 (stereo not shown) [Compound 112, Methyl 2-(2-phenylbutanamido)thiophene-3-carboxylate] | – | 59% @ 25 uM
COC(=O)c1ccsc1NC(=O)N1CCN(c2ccccn2)CC1 [Compound 114, Methyl 2-(4-(pyridin-2-yl)piperazine-1-carboxamido)thiophene-3-carboxylate] | – | 32% @ 25 uM
CCC(C(=O)Nc1sc(C(N)=O)c(C)c1C(=O)NCc1ccc(Cl)cc1)c1ccccc1 (stereo not shown) [Compound 115, 2-(2-Phenylbutanamido)-N3-(4-chlorobenzyl)-4-methylthiophene-3,5-dicarboxamide] | 11 µM | –
COC(=O)c1c(NC(=O)N2CCN(c3ccccn3)CC2)sc(C(N)=O)c1C [Compound 116, Methyl 2-(4-(pyridin-2-yl)piperazine-1-carboxamido)-5-carbamoyl-4-methylthiophene-3-carboxylate] | – | 30% @ 25 uM
O=C(Nc1snnc1-c1ccc(C(F)(F)F)cc1)N1CCN(c2ccccn2)CC1 [Compound 118, 4-Pyridin-2-yl-piperazine-1-carboxylic acid [4-(4-trifluoromethyl-phenyl)-[1,2,3]thiadiazol-5-yl]-amide] | 4 µM | –
O=C(NCc1ccccc1)c1nnsc1NC(=O)N1CCN(c2ccccc2)CC1 [Compound 123, 4-Phenyl-piperazine-1-carboxylic acid (4-benzylcarbamoyl-[1,2,3]thiadiazol-5-yl)-amide] | – | 44% @ 25 uM
Cc1ccc(CNC(=O)c2nnsc2NC(=O)N2CCN(c3ccccn3)CC2)cc1 [Compound 124, 4-Pyridin-2-yl-piperazine-1-carboxylic acid [4-(4-methyl-benzylcarbamoyl)-[1,2,3]thiadiazol-5-yl]-amide] | 14.5 µM | –
CCOC(=O)c1ncsc1NC(=O)N1CCN(c2ccccn2)CC1 [Compound 127, Ethyl 5-(4-(pyridin-2-yl)piperazine-1-carboxamido)thiazole-4-carboxylate] | 29.5 µM | –
O=C(NCc1ccccc1)c1ccsc1NC(=O)N1CCN(c2ccccn2)CC1 [Compound 130, N-(3-(Benzylcarbamoyl)thiophen-2-yl)-4-(pyridin-2-yl)piperazine-1-carboxamide] | 32.8 µM | –
Cc1c(C(N)=O)sc(NC(=O)N2CCN(c3ccccn3)CC2)c1C(=O)NCc1ccccc1 [Compound 131, 2-(4-(pyridin-2-yl)piperazine-1-carboxamido)-N3-benzyl-4-methylthiophene-3,5-dicarboxamide] | 31.8 µM | –
O=C(Nc1snnc1C(=O)NCc1ccc(Cl)cc1)Oc1ccccc1 [Compound 132, [4-(4-Chloro-benzylcarbamoyl)-[1,2,3]thiadiazol-5-yl]-carbamic acid phenyl ester] | 16.4 µM | –

From patent publication US20250295652A1, “Inhibitors of Molluscum Contagiosum Infection and Methods Using the Same” (priority 2021, published 2025)
